This is an account of results in ChEMBL document CHEMBL4229426, “Synthesis, antitumor activity evaluation and mechanistic study of novel hederacolchiside A1 derivatives bearing an aryl triazole moiety” (Bioorg Med Chem, 2018).

In general, IC50 refers to the concentration that gives 50% inhibition. A high value points to weaker potency.

The structures appear in SMILES notation.

Common to all, as to format: functional, cell-based
The test system of test [1] is HT-29. In words: Antiproliferative activity against human HT-29 cells after 48 hrs by MTT assay. As to conditions: HT-29, 48 h.
The subject of test [2] is HepG2. In words: Antiproliferative activity against human HepG2 cells after 48 hrs by MTT assay. As to conditions: HepG2, 48 h. (Tetrazolium assays rely on reduction of a dye to a coloured formazan, in cell work by metabolically active cells.)
Test [3] concerns HL-60. The test can be described thus: Antiproliferative activity against human HL60 cells after 48 hrs by MTT assay. As to conditions: HL-60, 48 h.
The test system of test [4] is A549. In words: Antiproliferative activity against human A549 cells after 48 hrs by MTT assay. As to conditions: A549, 48 h.
The test system of test [5] is U-937. The test can be described thus: Antiproliferative activity against human U937 cells after 48 hrs by MTT assay. Particulars: U-937, 48 h.
Test [6] concerns PC-3. In words: Antiproliferative activity against human PC3 cells after 48 hrs by MTT assay. Particulars: PC-3, 48 h.

`CC(=O)c1cccc(-n2cc(CNC(=O)[C@]34CCC(C)(C)C[C@H]3C3=CC[C@@H]5[C@@]6(C)CC[C@H](O[C@@H]7OC[C@H](O[C@@H]8O[C@H](CO)[C@@H](O)[C@H](O)[C@H]8O)[C@H](O)[C@H]7O[C@@H]7O[C@@H](C)[C@H](O)[C@@H](O)[C@H]7O)C(C)(C)[C@@H]6CC[C@@]5(C)[C@]3(C)CC4)nn2)c1`: the IC50 in test [1] came out at 3.33 µM; in test [2] it was 0.5 µM; in test [3] it was 5.66 µM; in test [4], 0.44 µM; in test [5] it was 0.81 µM; in test [6], 6.28 µM.
In the case of `COc1ccccc1-n1cc(CNC(=O)[C@]23CCC(C)(C)C[C@H]2C2=CC[C@@H]4[C@@]5(C)CC[C@H](O[C@@H]6OC[C@H](O[C@@H]7O[C@H](CO)[C@@H](O)[C@H](O)[C@H]7O)[C@H](O)[C@H]6O[C@@H]6O[C@@H](C)[C@H](O)[C@@H](O)[C@H]6O)C(C)(C)[C@@H]5CC[C@@]4(C)[C@]2(C)CC3)nn1`, the IC50 worked out at 44.4 µM in test [1]; 17.7 µM in test [2]; 12.2 µM in test [3]; 6.99 µM in test [4]; 7.73 µM in test [5]; 38 µM in test [6].
Turning to `C[C@@H]1O[C@@H](O[C@H]2[C@H](O[C@H]3CC[C@]4(C)[C@H]5CC=C6[C@@H]7CC(C)(C)CC[C@]7(C(=O)NCc7cn(-c8ccc(F)cc8)nn7)CC[C@@]6(C)[C@]5(C)CC[C@H]4C3(C)C)OC[C@H](O[C@@H]3O[C@H](CO)[C@@H](O)[C@H](O)[C@H]3O)[C@@H]2O)[C@H](O)[C@H](O)[C@H]1O`, the IC50 in test [1] came to 2.32 µM; in test [2], 3.18 µM; in test [3], 1.8 µM; in test [4] it was 1.02 µM; in test [5], 0.48 µM; in test [6] it was 5.78 µM.
Consider `C[C@@H]1O[C@@H](O[C@H]2[C@H](O[C@H]3CC[C@]4(C)[C@H]5CC=C6[C@@H]7CC(C)(C)CC[C@]7(C(=O)NCc7cn(-c8ccccc8Br)nn7)CC[C@@]6(C)[C@]5(C)CC[C@H]4C3(C)C)OC[C@H](O[C@@H]3O[C@H](CO)[C@@H](O)[C@H](O)[C@H]3O)[C@@H]2O)[C@H](O)[C@H](O)[C@H]1O`, for which the IC50 in test [1] was 5.11 µM; in test [2], 2.95 µM; in test [3], 3.11 µM; in test [4], 2.08 µM; in test [5], 0.78 µM; in test [6] it was 5.29 µM.
For `C[C@@H]1O[C@@H](O[C@H]2[C@H](O[C@H]3CC[C@]4(C)[C@H]5CC=C6[C@@H]7CC(C)(C)CC[C@]7(C(=O)NCc7cn(-c8ccccc8[N+](=O)[O-])nn7)CC[C@@]6(C)[C@]5(C)CC[C@H]4C3(C)C)OC[C@H](O[C@@H]3O[C@H](CO)[C@@H](O)[C@H](O)[C@H]3O)[C@@H]2O)[C@H](O)[C@H](O)[C@H]1O`, the IC50 in test [1] came out at 7.76 µM; in test [2], 34.9 µM; in test [3] it was 36.7 µM; in test [4], 54.9 µM; in test [5], 40.1 µM; in test [6], 50.5 µM.
Regarding `Cc1cccc(C)c1-n1cc(CNC(=O)[C@]23CCC(C)(C)C[C@H]2C2=CC[C@@H]4[C@@]5(C)CC[C@H](O[C@@H]6OC[C@H](O[C@@H]7O[C@H](CO)[C@@H](O)[C@H](O)[C@H]7O)[C@H](O)[C@H]6O[C@@H]6O[C@@H](C)[C@H](O)[C@@H](O)[C@H]6O)C(C)(C)[C@@H]5CC[C@@]4(C)[C@]2(C)CC3)nn1`, the IC50 in test [1] came out at 7.66 µM; in test [2], 3.31 µM; in test [3], 4.47 µM; in test [4] it was 6.08 µM; in test [5], 8.48 µM; in test [6] it was 8.96 µM.
Turning to `C[C@@H]1O[C@@H](O[C@H]2[C@H](O[C@H]3CC[C@]4(C)[C@H]5CC=C6[C@@H]7CC(C)(C)CC[C@]7(C(=O)O)CC[C@@]6(C)[C@]5(C)CC[C@H]4C3(C)C)OC[C@H](O[C@@H]3O[C@H](CO)[C@@H](O)[C@H](O)[C@H]3O)[C@@H]2O)[C@H](O)[C@H](O)[C@H]1O` [HEDERACOLCHISIDE A1], the IC50 in test [1] came to 4.77 µM; in test [2] it was 4.21 µM; in test [3] it was 3.13 µM; in test [4], 5.41 µM; in test [5], 2.37 µM; in test [6] it was 0.85 µM.
Regarding `CC(=O)c1ccccc1-n1cc(CNC(=O)[C@]23CCC(C)(C)C[C@H]2C2=CC[C@@H]4[C@@]5(C)CC[C@H](O[C@@H]6OC[C@H](O[C@@H]7O[C@H](CO)[C@@H](O)[C@H](O)[C@H]7O)[C@H](O)[C@H]6O[C@@H]6O[C@@H](C)[C@H](O)[C@@H](O)[C@H]6O)C(C)(C)[C@@H]5CC[C@@]4(C)[C@]2(C)CC3)nn1`, the IC50 in test [1] was determined as 35.6 µM; in test [2] it was 12.4 µM; in test [3], 14.3 µM; in test [4] it was 10.5 µM; in test [5], 11.3 µM; in test [6] it was 49.6 µM.
